# From patent US20100092443A1, “NOVEL COMBINATIONS OF NITROGENATED HETEROCYCLIC ANTIBACTERIAL COMPOUNDS WITH OTHER ANTIBACTERIAL COMPOUNDS AND THE USE OF SAME AS DRUGS” (priority 2008, published 2010)
# Read-outs that look alike come from different tables or passages of the source.
# What was measured:
# [1] = tested on: E. coli; assay: microbe, parasite or virus in culture; assay type: cell-based; conditions: Escherichia coli
# Method: (§1) In vitro activity, method of dilutions in liquid medium:
# (§2) A series of test 96-well microtiter plates are prepared in which the same quantity of sterile nutritive medium is distributed. […] After 24 h of incubation in a 37° C. oven, growth inhibition is evaluated by transillumination, which makes it possible to determine the minimum inhibitory concentrations (MICS) expressed in μg/ml.
# [2] = tested on: E. aerogenes; assay: MIC, dilutions in liquid medium, alone and combined with NXL105; assay type: cell-based; conditions: Klebsiella aerogenes, 24 h; E. aerogenes EAR2; Case-R + FEP-R; read-out: MIC
# [3] = tested on: K. pneumoniae; assay: as above; assay type: cell-based; conditions: Klebsiella pneumoniae, read-out: MIC
# Method: as §1, §2
# [4] = tested on: E. cloacae; assay: as above; assay type: cell-based; conditions: Enterobacter cloacae, AmpC, read-out: MIC
# Method: as §1, §2
# [5] = tested on: K. oxytoca; assay: as above; assay type: cell-based; conditions: Klebsiella oxytoca, read-out: MIC
# [6] = tested on: C. freundii; assay: as above; assay type: cell-based; conditions: Citrobacter freundii, read-out: MIC
# [7] = tested on: P. aeruginosa (391 HT2); assay: MICs determined on microplates; assay type: cell-based, Pseudomonas aeruginosa; conditions: Pseudomonas aeruginosa; sensitive strain P. aeruginosa 391 HT2
# Method: (§3) The minimum inhibitory concentrations (MICs) of the products to be tested (products alone and combinations) are determined in advance. • For each concentration of product to be tested as well as the control stock, an Erlenmeyer flask containing 18.5 ml Muller-Hinton medium (Ca^++) is prepared. • From an overnight culture in broth or a bacterial suspension of OD (optical density)=1, a 1/100 dilution is prepared. • The sample is cultured with agitation for 2 h at 37° C. • OD is measured: if >0.5, the sample is diluted to 1/10. • Each Erlenmeyer flask is inoculated with 1 ml of the agitated culture or its dilution. The initial inoculum should be 1×10^6 CFU/ml. • The various antibiotic solutions are added at a volume of 0.5 ml and 0.5 ml of medium in the control Erlenmeyer flask. • With a volume of 0.1 ml, the control Erlenmeyer flask is numbered=TO. • The flask is incubated at 37° C. with agitation. • At each sampling point (2, 4, 6, 24, 48 hours), a volume of 0.1 ml is sampled from each Erlenmeyer flask and numbered. • Plates for all the numbered samples are incubated (24 h-48 h) at 37° C.
# Bactericidal activity was evaluated on a sensitive strain of P. aeruginosa (391 HT2)
# [8] = tested on: P. aeruginosa (391 HT2); assay: MICs in a volume of 10 ml, bactericidal conditions (exponential bacterial growth); assay type: cell-based, Pseudomonas aeruginosa; conditions: Pseudomonas aeruginosa
# Method: as §3
# For the bactericidal tests, MICs are determined in a volume of 10 ml-bactericidal conditions (exponential bacterial growth): […]
structure (smiles),measurement,setting,value
C[C@H]1[C@H](NC(=O)/C(=N\OC(C)(C)C(=O)O)c2csc(N)n2)C(=O)N1S(=O)(=O)O [Aztreonam],MIC,"[1]; 24 h, E. coli 2138, KPC-2 + TEM-1",32 µg/mL
same,MIC,"[1]; 24 h, E. coli (no alias), CTX-M-15 + TEM-1 + OXA-1",4 µg/mL
same,MIC,"[1]; 24 h, E. coli IND, VEB-1 + CMY-2",> 32 µg/mL
same,MIC,"[1]; 24 h, E. coli TN06, CTX-M-2 + TEM-1",8 µg/mL
same,MIC,"[1]; 24 h, E. coli TN13, CTX-M-14 + CMY-2 + TEM-1",16 µg/mL
same,MIC,"[1]; 24 h, E. coli Tunisie clone E4, CTX-M-16 + TEM-1",32 µg/mL
same,MIC,"[1]; E. coli (no alias), Cephalosporinase, read-out: MIC",16 µg/mL
same,MIC,"[1]; E. coli (no alias), SHV-4",16 µg/mL
same,MIC,"[1]; E. coli (no alias), TEM-3",8 µg/mL
same,MIC,[2],16 µg/mL
same,MIC,"[3]; 24 h, K. pneumoniae 60, SHV-2 + TEM-2 + PER",16 µg/mL
same,MIC,"[3]; 24 h, K. pneumoniae 157, SHV-5 + TEM-26",16 µg/mL
same,MIC,"[3]; 24 h, K. pneumoniae 236, SHV-5 + TEM-10",16 µg/mL
same,MIC,"[3]; 24 h, K. pneumoniae 253, SHV-2 + TEM-12 + CTX-M-2",16 µg/mL
same,MIC,"[3]; 24 h, K. pneumoniae 427, SHV-1 + TEM-1B + CTX-M-3",4 µg/mL
same,MIC,"[3]; 24 h, K. pneumoniae 441, SHV-1 + TEM-2 + PER",16 µg/mL
same,MIC,"[3]; 24 h, K. pneumoniae 444, SHV-5 + TEM-2 + PER",8 µg/mL
same,MIC,"[3]; 24 h, K. pneumoniae 1734, FOX-3 + TEM-1",8 µg/mL
same,MIC,"[3]; 24 h, K. pneumoniae 9701, CMY-4 + TEM-1",16 µg/mL
same,MIC,"[3]; 24 h, K. pneumoniae Patient 1BHR, VIM-4 + CTX-M-15 = CMY-4 + TEM-1",16 µg/mL
same,MIC,"[3]; 24 h, K. pneumoniae SLK54, ACC-1 + TEM-1",2 µg/mL
same,MIC,"[3]; 24 h, K. pneumoniae TN58467, DHA-1 + SHV-2a + TEM-1",16 µg/mL
same,MIC,"[3]; ATCC700603, K. pneumoniae ATCC 700603, SHV-18",8 µg/mL
same,MIC,"[3]; K. pneumoniae 26, SHV-5",16 µg/mL
same,MIC,"[3]; K. pneumoniae KP04, CTX-M-14",16 µg/mL
same,MIC,"[3]; K. pneumoniae VAKP, KPC-2",16 µg/mL
same,MIC,[4]; E. cloacae (no alias),16 µg/mL
same,MIC,[4]; E. cloacae,16 µg/mL
same,MIC,"[5]; K. oxytoca 1431, TEM-129",> 32 µg/mL
same,MIC,"[5]; K. oxytoca 16944, OXY-2, TEM-1",32 µg/mL
same,MIC,"[6]; 24 h, C. freundii (no alias), AmpC + TEM-1",16 µg/mL
same,MIC,"[6]; C. freundii (no alias, table row r121), AmpC",8 µg/mL
same,MIC,"[6]; C. freundii (no alias, table row r122), AmpC",32 µg/mL
same,MIC,"[6]; C. freundii (no alias, table row r123), AmpC",16 µg/mL
same,MIC,"[6]; C. freundii (no alias, table row r125), AmpC",4 µg/mL
O=C(O)c1cn(C2CC2)c2cc(N3CCNCC3)c(F)cc2c1=O [Ciprofloxacine],MIC,[7],1 µg/mL
NC[C@H]1O[C@H](O[C@H]2[C@H](O)[C@@H](O[C@H]3O[C@H](CO)[C@@H](O)[C@H](N)[C@H]3O)[C@H](N)C[C@@H]2N)[C@H](N)C[C@@H]1O [Tobramycin],MIC,[7],1 µg/mL
same,MIC,[8],1 µg/mL
